Results from ChEMBL document CHEMBL1140512, “N-Alkylidenearylcarboxamides as new potent and selective CB(2) cannabinoid receptor agonists with good oral bioavailability” (Bioorg Med Chem Lett, 2007).
pEC50, pIC50: −log10 of the molar value.

What was measured:
Cannabinoid receptor 2 [1] = molecular target: T1, Cannabinoid receptor 2 (Homo sapiens, UniProt P34972); assay: Displacement of [3H]CP-55940 form human CB2 receptor expressed in CHO cells; assay type: cell-based
Cannabinoid receptor 2 [2] = molecular target: T1, Cannabinoid receptor 2; assay: Efficacy at human CB2 receptor expressed in CHO cells by [35S]GTP-gamma-S binding assay relative to CP-55940; assay type: functional, cell-based
Cannabinoid receptor 2 [3] = molecular target: T1, Cannabinoid receptor 2; assay: Agonist activity at human CB2 receptor expressed in CHO cells by [35S]GTP-gamma-S binding assay; assay type: functional, cell-based
Cannabinoid receptor 1 = Cannabinoid receptor 1 (Homo sapiens, UniProt P21554); assay: Displacement of [3H]CP-55940 form human CB1 receptor expressed in CHO cells; assay type: cell-based
[4] = Half life in rat at 10 mg/kg, po; assay type: ADME, organism-based; set-up: dose 10 mg/kg, route oral; settings: in vivo
Homo sapiens = organism: Homo sapiens; assay: Selectivity for human CB2 receptor over CB1 receptor
[5] = Half life in rat at 3 mg/kg, po; assay type: ADME, organism-based; set-up: dose 3 mg/kg, route oral; settings: in vivo
[6] = Oral bioavailability in rat at 3 mg/kg, po; assay type: ADME, organism-based; settings: in vivo
[7] = AUC (0 to 24 hrs) in rat at 10 mg/kg, po; assay type: ADME, organism-based; set-up: time < 24 hr, dose 10 mg/kg, route oral; settings: plasma
[8] = Cmax in rat at 10 mg/kg, po; assay type: ADME, organism-based; set-up: dose 10 mg/kg, route oral; settings: in vivo
[9] = Cmax in rat at 3 mg/kg, po; assay type: ADME, organism-based; set-up: dose 3 mg/kg, route oral; settings: in vivo
[10] = Tmax in rat at 30 mg/kg, po; assay type: ADME, organism-based; set-up: dose 30 mg/kg, route oral; settings: in vivo
[11] = AUC (0 to 24 hrs) in rat at 3 mg/kg, po; assay type: ADME, organism-based; set-up: time < 24 hr, dose 3 mg/kg, route oral; settings: plasma
[12] = AUC (0 to 24 hrs) in rat at 30 mg/kg, po; assay type: ADME, organism-based; set-up: time < 24 hr, dose 30 mg/kg, route oral; settings: plasma
[13] = Cmax in rat at 30 mg/kg, po; assay type: ADME, organism-based; set-up: dose 30 mg/kg, route oral; settings: in vivo
[14] = Tmax in rat at 10 mg/kg, po; assay type: ADME, organism-based; set-up: dose 10 mg/kg, route oral; settings: in vivo
[15] = Tmax in rat at 3 mg/kg, po; assay type: ADME, organism-based; set-up: dose 3 mg/kg, route oral; settings: in vivo
[16] = Half life in rat at 30 mg/kg, po; assay type: ADME, organism-based; set-up: dose 30 mg/kg, route oral; settings: in vivo
Cannabinoid receptor 2 [17] = molecular target: T1, Cannabinoid receptor 2; assay: Displacement of [3H]CP-55940 form human CB2 receptor expressed in CHO cells at 100 nM; assay type: cell-based
[18] = Metabolic stability in human liver microsomes assessed as parent compound remaining after 15 mins; assay type: ADME, Microsome; settings: read-out: Stability

T1 sequence (P34972 whole entry): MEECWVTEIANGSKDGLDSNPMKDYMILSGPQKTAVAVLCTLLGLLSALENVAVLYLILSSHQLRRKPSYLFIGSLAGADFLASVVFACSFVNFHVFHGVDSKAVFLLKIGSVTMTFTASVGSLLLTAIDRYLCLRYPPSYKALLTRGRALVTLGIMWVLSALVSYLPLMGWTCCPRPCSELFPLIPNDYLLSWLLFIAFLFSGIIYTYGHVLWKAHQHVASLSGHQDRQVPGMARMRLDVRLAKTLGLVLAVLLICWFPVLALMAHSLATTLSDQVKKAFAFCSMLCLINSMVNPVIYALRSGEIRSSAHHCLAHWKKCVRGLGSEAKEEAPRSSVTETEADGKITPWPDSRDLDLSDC
Chain of Cannabinoid receptor 1 (P21554 whole entry): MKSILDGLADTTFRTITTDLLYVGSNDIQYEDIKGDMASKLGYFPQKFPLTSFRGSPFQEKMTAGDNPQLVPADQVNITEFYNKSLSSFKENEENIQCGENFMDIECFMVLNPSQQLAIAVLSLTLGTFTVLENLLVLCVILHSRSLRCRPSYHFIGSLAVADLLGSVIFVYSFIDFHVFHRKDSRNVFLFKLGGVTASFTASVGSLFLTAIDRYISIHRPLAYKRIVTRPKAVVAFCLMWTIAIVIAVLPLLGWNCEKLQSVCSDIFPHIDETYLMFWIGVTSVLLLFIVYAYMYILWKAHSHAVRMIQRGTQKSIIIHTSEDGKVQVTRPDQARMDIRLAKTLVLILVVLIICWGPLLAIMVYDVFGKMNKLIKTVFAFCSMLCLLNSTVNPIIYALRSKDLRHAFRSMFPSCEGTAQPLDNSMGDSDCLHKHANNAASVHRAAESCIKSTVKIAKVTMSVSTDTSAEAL

Structure (SMILES) | pIC50 (Cannabinoid receptor 2 [1]) | Emax (Cannabinoid receptor 2 [2]) [%] | pEC50 (Cannabinoid receptor 2 [3]) | pIC50 (Cannabinoid receptor 1) | also measured
Cc1c(C(C)(C)C)s/c(=N\C(=O)c2cccc(C(F)(F)F)c2)n1C | 6.66 |  |  |  | 
Cc1c(C(C)(C)C)s/c(=N\C(=O)c2cccc(Br)c2)n1CC1CC1 | 8.92 | 96 | 9.52 | 7.28 | 
Cc1c(C(C)(C)C)s/c(=N\C(=O)c2cccc(C(F)(F)F)c2)n1CC1CC1 | 7.89 |  | 8.00 | 5.46 | half-life [4]: 4.96 h; Ratio IC50 (Homo sapiens): 270; half-life [5]: 4.8 h; bioavailability [6]: 52%; AUC(0-t) at 24 h [7]: 2050 ng·h/mL; Cmax [8]: 223 ng/mL; Cmax [9]: 43.1 ng/mL; Tmax [10]: 2.67 h; AUC(0-t) at 24 h [11]: 326 ng·h/mL; AUC(0-t) at 24 h [12]: 4240 ng·h/mL; Cmax [13]: 498 ng/mL; Tmax [14]: 2 h; Tmax [15]: 1.67 h; half-life [16]: 4.7 h
Cc1c(C(C)(C)C)s/c(=N\C(=O)c2cc(C(F)(F)F)ccc2Cl)n1CC1CC1 | 8.68 | 95 | 8.40 | 6.08 | 
CCOCCn1c(C)c(C(C)(C)C)s/c1=N\C(=O)c1cccc(C(F)(F)F)c1 |  | 45 | 8.70 | 6.16 | 
Cc1c(C(C)(C)C)s/c(=N\C(=O)c2cc(C(F)(F)F)cc(C(F)(F)F)c2)n1CC1CC1 |  |  |  |  | inhibition (Cannabinoid receptor 2 [17]): 10%
Cc1c(C(C)(C)C)s/c(=N\C(=O)c2cccc(OC(F)(F)F)c2)n1CC1CC1 | 8.24 | 72 | 8.12 | 5.96 | 
CCn1c(C)c(C(C)(C)C)s/c1=N\C(=O)c1cccc(C(F)(F)F)c1 | 7.13 |  |  |  | 
Cc1c(C(C)(C)C)s/c(=N\C(=O)c2ccc(Cl)c(C(F)(F)F)c2)n1CC1CC1 | 6.64 |  |  |  | 
Cc1c(C(C)(C)C)s/c(=N\C(=O)c2ccccc2C(F)(F)F)n1CC1CC1 |  |  |  | 6.85 | 
Cc1ccc(C(F)(F)F)cc1C(=O)/N=c1\sc(C(C)(C)C)c(C)n1CC1CC1 | 8.68 | 99 | 8.57 | 5.92 | Ratio IC50 (Homo sapiens): 570
Cc1c(C(C)(C)C)s/c(=N\C(=O)c2cccc(C(F)(F)F)c2Cl)n1CC1CC1 | 9.39 |  |  |  | 
Cc1c(C(=O)N(C)C)s/c(=N\C(=O)c2cccc(C(F)(F)F)c2)n1CC1CC1 | 6.00 |  |  |  | 
Cc1c(C(C)(C)C)s/c(=N\C(=O)c2ccc(C(F)(F)F)cc2)n1CC1CC1 |  |  |  |  | inhibition (Cannabinoid receptor 2 [17]): 24%
Cc1c(C(C)(C)C)s/c(=N\C(=O)c2cccc(Cl)c2)n1CC1CC1 | 7.70 |  |  |  | 
Cc1cccc(C(=O)/N=c2\sc(C(C)(C)C)c(C)n2CC2CC2)c1 | 7.66 |  |  |  | 
CCOC(=O)c1s/c(=N\C(=O)c2cccc(C(F)(F)F)c2)n(CC2CC2)c1C | 6.96 |  |  |  | 
Cc1c(C(C)(C)C)s/c(=N\C(=O)c2cc(C(F)(F)F)ccc2F)n1CC1CC1 |  | 85 | 8.82 | 5.82 | Ratio IC50 (Homo sapiens): 440
CCCn1c(C)c(C(C)(C)C)s/c1=N\C(=O)c1cccc(C(F)(F)F)c1 | 7.34 |  |  |  | 
COc1cccc(C(=O)/N=c2\sc(C(C)(C)C)c(C)n2CC2CC2)c1 | 7.62 |  |  |  | 
Cc1c(C(C)(C)C)s/c(=N\C(=O)c2cc(C(F)(F)F)ccc2N(C)C)n1CC1CC1 | 8.03 | 89 | 8.14 | < 5.00 | Ratio IC50 (Homo sapiens): > 1000
Cc1c(C(C)(C)C)s/c(=N\C(=O)c2cccc(F)c2)n1CC1CC1 |  |  |  |  | inhibition (Cannabinoid receptor 2 [17]): 44%
Cc1c(C(C)(C)C)s/c(=N\C(=O)c2cccc(N(C)C)c2)n1CC1CC1 | 7.77 |  |  |  | remaining at 0.25 h [18]: 44%
Cc1s/c(=N\C(=O)c2cccc(C(F)(F)F)c2)n(CC2CC2)c1C | 7.60 |  |  |  | 
COc1ccc(C(F)(F)F)cc1C(=O)/N=c1\sc(C(C)(C)C)c(C)n1CC1CC1 | 8.92 | 100 | 9.21 | 5.72 | remaining at 0.25 h [18]: 85%; half-life [4]: 4.07 h; Ratio IC50 (Homo sapiens): 1600; AUC(0-t) at 24 h [7]: 1120 ng·h/mL; Cmax [8]: 148 ng/mL; Tmax [14]: 1 h
Cc1c(C(C)C)s/c(=N\C(=O)c2cccc(C(F)(F)F)c2)n1CC1CC1 | 7.54 |  |  |  | 
Cc1c(C(C)(C)C)s/c(=N\C(=O)c2ccccc2)n1CC1CC1 | 6.59 | 100 | 7.07 |  | 
COCCn1c(C)c(C(C)(C)C)s/c1=N\C(=O)c1cccc(C(F)(F)F)c1 | 8.00 | 59 | 8.25 | 5.39 | 
